Assay results from publication PMC11191095, “QSAR Reveals Decreased Lipophilicity of Polar Residues Determines the Selectivity of Antimicrobial Peptide Activity” (ACS Omega, 2024).
Where a SMILES comes first, the peptide text is derived from it.

Columns and labels:
Test in all cases: microbe, parasite or virus in culture
[1] = tested on: E. coli NCTC 12923; assay type: cell-based, Escherichia coli; conditions: E. coli NCTC 12923 (S)
Outline: (§1)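 Peptides 128→2 μg/mL, 2-fold series; inoculum ~5 × 10^5 CFU/mL from overnight culture (OD600 0.01, mixed 1:1). MHB non-cation-adjusted for bacteria, RPMI 1640 + 2% glucose for fungi. 37 °C, 20 h, OD600. MIC50/MIC90 at 50%/90% inhibition; n ≥ 3.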

[2] = tested on: E. coli LEC001; assay type: cell-based, Escherichia coli; conditions: E. coli LEC001 (R)
Outline: as §1

[3] = tested on: C. albicans NCPF 3281; assay type: cell-based; conditions: C. albicans NCPF 3281
Outline: as §1

[4] = tested on: C. krusei NCPF 3876; assay type: cell-based; conditions: C. krusei NCPF 3876
Outline: as §1

[5] = tested on: C. parapsilosis NCPF 3209; assay type: cell-based; conditions: C. parapsilosis NCPF 3209
Outline: as §1

[6] = tested on: C. tropicalis NCPF 8760; assay type: cell-based; conditions: C. tropicalis NCPF 8760
Outline: as §1

[7] = tested on: C. glabrata NCPF 8018; assay type: cell-based; conditions: C. glabrata NCPF 8018
Outline: as §1

[8] = tested on: P. aeruginosa NCTC 13437; assay type: cell-based, Pseudomonas aeruginosa; conditions: P. aeruginosa NCTC 13437 (R)
Outline: as §1

[9] = tested on: A. baumannii AYE; assay type: cell-based, Acinetobacter baumannii; conditions: A. baumannii AYE (R)
Outline: as §1

[10] = tested on: A. baumannii ATCC 17978; assay type: cell-based, Acinetobacter baumannii; conditions: A. baumannii ATCC 17978 (S)
Outline: as §1

[11] = tested on: S. aureus (MRSA) NCTC 13616; assay type: cell-based, Staphylococcus aureus; conditions: S. aureus (MRSA) NCTC 13616 (R)
Outline: as §1

[12] = tested on: S. aureus (MRSA) USA300; assay type: cell-based, Staphylococcus aureus; conditions: S. aureus (MRSA) USA300 (R)
Outline: as §1

[13] = tested on: S. aureus (MRSA) 1199B; assay type: cell-based, Staphylococcus aureus; conditions: S. aureus (MRSA) 1199B (R)
Outline: as §1

[14] = tested on: S. aureus (MSSA) ATCC 9144; assay type: cell-based, Staphylococcus aureus; conditions: S. aureus (MSSA) ATCC 9144 (S)
Outline: as §1

[15] = tested on: K. pneumoniae NCTC 13368; assay type: cell-based, Klebsiella pneumoniae; conditions: K. pneumoniae NCTC 13368 (R)
Outline: as §1

[16] = tested on: K. pneumoniae M6; assay type: cell-based, Klebsiella pneumoniae; conditions: K. pneumoniae M6 (S)
Outline: as §1

[17] = MHB, ~5×10^5 CFU/mL, 37 °C, 20 h, OD600, min. three biological repeats
[18] = MHB, 37 °C, 20 h, OD600, min. three biological repeats
[19] = 50% growth inhibition, RPMI 1640 + 2% glucose, 37 °C, 20 h
[20] = 90% growth inhibition, RPMI 1640 + 2% glucose, 37 °C, 20 h

CC[C@H](C)[C@H](NC(=O)CNC(=O)[C@@H](N)CCCCN)C(=O)N[C@@H](CCCNC(=N)N)C(=O)NCC(=O)N[C@@H](Cc1ccc(O)cc1)C(=O)N[C@@H](CCCCN)C(=O)NCC(=O)NCC(=O)N[C@@H](Cc1ccc(O)cc1)C(=O)N[C@@H](CS)C(=O)N[C@@H](CCCCN)C(=O)NCC(=O)N[C@@H](C)C(=O)N[C@@H](Cc1ccccc1)C(=O)N[C@@H](CCCCN)C(=O)N[C@@H](CCC(N)=O)C(=O)N[C@H](C(=O)N[C@@H](CS)C(=O)N[C@@H](CCCCN)C(=O)N[C@@H](CS)C(=O)N[C@@H](Cc1ccc(O)cc1)C(N)=O)[C@@H](C)O [Osa] (H-KGIRGYKGGYCKGAFKQTCKCY-NH2; N-terminus assumed)
> 128 µg/mL: Modal MIC [1, 17] | Modal MIC [2, 18] | Modal MIC50 [3, 19] | Modal MIC90 [3, 20] | Modal MIC50 [4, 19] | Modal MIC90 [4, 20] | Modal MIC50 [5, 19] | Modal MIC90 [5, 20] | Modal MIC50 [6, 19] | Modal MIC90 [6, 20] | Modal MIC50 [7, 19] | Modal MIC90 [7, 20] | Modal MIC [8, 18] | Modal MIC [9, 18] | Modal MIC [10, 18] | Modal MIC [11, 18] | Modal MIC [12, 18] | Modal MIC [13, 18] | Modal MIC [14, 18] | Modal MIC [15, 18] | Modal MIC [16, 18]
> 51.7 µM: Modal MIC ([1]; shown in µM) | Modal MIC ([2]; shown in µM) | Modal MIC50 ([3]; shown in µM) | Modal MIC90 ([3]; shown in µM) | Modal MIC50 ([4]; shown in µM) | Modal MIC90 ([4]; shown in µM) | Modal MIC50 ([5]; shown in µM) | Modal MIC90 ([5]; shown in µM) | Modal MIC50 ([6]; shown in µM) | Modal MIC90 ([6]; shown in µM) | Modal MIC50 ([7]; shown in µM) | Modal MIC90 ([7]; shown in µM) | Modal MIC ([8]; shown in µM) | Modal MIC ([9]; shown in µM) | Modal MIC ([10]; shown in µM) | Modal MIC ([11]; shown in µM) | Modal MIC ([12]; shown in µM) | Modal MIC ([13]; shown in µM) | Modal MIC ([14]; shown in µM) | Modal MIC ([15]; shown in µM) | Modal MIC ([16]; shown in µM)

CC(C)C[C@H](NC(=O)[C@H](CCCCN)NC(=O)[C@H](CO)NC(=O)[C@H](CCCCN)NC(=O)[C@H](Cc1c[nH]c2ccccc12)NC(=O)[C@H](C)NC(=O)[C@H](CCCCN)NC(=O)[C@@H](N)CCCCN)C(=O)N[C@@H](C)C(=O)N[C@@H](CCCCN)C(=O)N[C@@H](CCCCN)C(=O)N[C@@H](CC(C)C)C(=O)N[C@@H](CCCNC(=N)N)C(=O)N[C@@H](C)C(=O)N[C@@H](CCCCN)C(=O)NCC(=O)N[C@@H](CCCCN)C(N)=O [PS-PB-14a] (H-KKAWKSKLAKKLRAKGK-NH2)
31.9 µM: Modal MIC50 ([6]; shown in µM) | Modal MIC90 ([6]; shown in µM)
> 128 µg/mL: Modal MIC [1, 17] | Modal MIC [2, 18] | Modal MIC50 [3, 19] | Modal MIC90 [3, 20] | Modal MIC50 [4, 19] | Modal MIC90 [4, 20] | Modal MIC50 [5, 19] | Modal MIC90 [5, 20] | Modal MIC50 [7, 19] | Modal MIC90 [7, 20] | Modal MIC [8, 18] | Modal MIC [9, 18] | Modal MIC [10, 18] | Modal MIC [11, 18] | Modal MIC [12, 18] | Modal MIC [13, 18] | Modal MIC [14, 18] | Modal MIC [15, 18] | Modal MIC [16, 18]
> 63.8 µM: Modal MIC ([1]; shown in µM) | Modal MIC ([2]; shown in µM) | Modal MIC50 ([3]; shown in µM) | Modal MIC90 ([3]; shown in µM) | Modal MIC50 ([4]; shown in µM) | Modal MIC90 ([4]; shown in µM) | Modal MIC50 ([5]; shown in µM) | Modal MIC90 ([5]; shown in µM) | Modal MIC50 ([7]; shown in µM) | Modal MIC90 ([7]; shown in µM) | Modal MIC ([8]; shown in µM) | Modal MIC ([9]; shown in µM) | Modal MIC ([10]; shown in µM) | Modal MIC ([11]; shown in µM) | Modal MIC ([12]; shown in µM) | Modal MIC ([13]; shown in µM) | Modal MIC ([14]; shown in µM) | Modal MIC ([15]; shown in µM) | Modal MIC ([16]; shown in µM)
